Test results published in ChEMBL document CHEMBL1201862, “PubChem BioAssay data set” (2004).
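A five-concentration, 48-hour dose response in 96-well plates underlies each endpoint, interpolated linearly between surrounding concentrations. Here, GI50 denotes the concentration required for 50% inhibition of growth.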 Calls of active or inactive are those of the source. No stated cut-off is given here; in the data, active = GI50 up to about 1.1 µM and inactive = higher.

Legend:
Test in all cases: inhibition of tumour cell growth, NCI panel, 48 h
SN12C = system: SN12C
SW-620 = system: SW-620
SF-539 = system: SF-539
HCT-116 = system: HCT-116
K562 = system: K562
SNB-75 = system: SNB-75
M14 = system: M14
A498 = system: A498
786-0 = system: 786-0
CAKI-1 = system: CAKI-1
SNB-19 = system: SNB-19
PC-3 = system: PC-3
DU-145 = system: DU-145
LOX IMVI = system: LOX IMVI
OVCAR-5 = system: OVCAR-5
UACC-257 = system: UACC-257
KM12 = system: KM12
HOP-62 = system: HOP-62
BT-549 = system: BT-549

Structure (SMILES)	GI50 (SN12C)	GI50 (SW-620)	GI50 (SF-539)	GI50 (HCT-116)	GI50 (K562)	GI50 (SNB-75)	GI50 (M14)	GI50 (A498)	GI50 (786-0)	GI50 (CAKI-1)	GI50 (SNB-19)	GI50 (PC-3)	GI50 (DU-145)	GI50 (LOX IMVI)	GI50 (OVCAR-5)	GI50 (UACC-257)	GI50 (KM12)	GI50 (HOP-62)	GI50 (BT-549)
CC1CN1P1(N2CC2C)=NP(N2CC2C)(N2CC2C)=NP(N2CC2C)(N2CC2C)=N1 (stereo unspecified)	> 50 µM (inactive)	> 50 µM (inactive)	> 50 µM (inactive)	> 50 µM (inactive)	> 50 µM (inactive)	> 50 µM (inactive)	> 50 µM (inactive)	> 50 µM (inactive)	> 50 µM (inactive)	> 50 µM (inactive)	> 50 µM (inactive)								
CC/C=C/C(CC)C/C(C)=C\[C@]1(CC)C[C@H](CC)[C@H](CC(=O)O)OO1 (stereo partly specified)	1.59 µM (inactive)	0.352 µM (active)	1.51 µM (inactive)	0.41 µM (active)	0.355 µM (active)		1.64 µM (inactive)	1.53 µM (inactive)	1.31 µM (inactive)	0.259 µM (active)	1.82 µM (inactive)	0.366 µM (active)	0.451 µM (active)	0.0315 µM (active)	1.29 µM (inactive)	3.42 µM (inactive)	0.0991 µM (active)	0.885 µM (active)	
CC(=O)OC1CCN(C(=O)c2ccccc2)CC1CC1(c2cc3ccccc3[nH]2)OCCO1 (stereo unspecified)	84.3 µM (inactive)	> 100 µM (inactive)		72.6 µM (inactive)	30.1 µM (inactive)	49.4 µM (inactive)	83.8 µM (inactive)	26.7 µM (inactive)	> 100 µM (inactive)	> 100 µM (inactive)	> 100 µM (inactive)	34.9 µM (inactive)	> 100 µM (inactive)	83.2 µM (inactive)	> 100 µM (inactive)	50 µM (inactive)	67.5 µM (inactive)	> 100 µM (inactive)	
CSc1cc(Cl)c(C)cc1S(=O)(=O)NC(=O)NNc1ccc(C)cc1	> 100 µM (inactive)	> 100 µM (inactive)	> 100 µM (inactive)	> 100 µM (inactive)	> 100 µM (inactive)	8.26 µM (inactive)	> 100 µM (inactive)	> 100 µM (inactive)	> 100 µM (inactive)	82 µM (inactive)	> 100 µM (inactive)	43.5 µM (inactive)	48.9 µM (inactive)	> 100 µM (inactive)	> 100 µM (inactive)		78.3 µM (inactive)	> 100 µM (inactive)	
O=C(c1cccc2ccccc12)C1(Br)S(=O)(=O)OCCOS1(=O)=O	> 100 µM (inactive)			> 100 µM (inactive)	> 10 µM (inactive)		> 100 µM (inactive)		> 100 µM (inactive)	> 100 µM (inactive)	> 100 µM (inactive)		> 100 µM (inactive)	> 100 µM (inactive)	> 100 µM (inactive)	> 100 µM (inactive)	> 100 µM (inactive)	> 100 µM (inactive)	> 100 µM (inactive)
Cc1ccc2c(O)cc(-c3cccc(Cl)c3)nc2n1		< 0.01 µM (active)	< 0.01 µM (active)	< 0.016 µM (active)	< 0.0169 µM (active)		0.0306 µM (active)	0.0333 µM (active)	< 0.0255 µM (active)	0.0415 µM (active)	0.0705 µM (active)		0.194 µM (active)	0.024 µM (active)		0.0393 µM (active)	< 0.0196 µM (active)	0.0305 µM (active)	0.278 µM (active)
Cc1ccc(O)c(/N=N/c2ccc(S(=O)(=O)O)cc2)n1	> 100 µM (inactive)	> 100 µM (inactive)	> 100 µM (inactive)	> 100 µM (inactive)	> 100 µM (inactive)		> 100 µM (inactive)	> 100 µM (inactive)	> 100 µM (inactive)	> 100 µM (inactive)				> 100 µM (inactive)					
Cc1ccc(C)c(NC(=O)/C(=N\N)C(c2cnc3ccc([N+](=O)[O-])cc3n2)[N+](=O)[O-])c1 (stereo unspecified)	> 100 µM (inactive)	> 100 µM (inactive)	> 100 µM (inactive)	> 100 µM (inactive)	> 100 µM (inactive)	> 100 µM (inactive)	> 100 µM (inactive)	83.2 µM (inactive)	> 100 µM (inactive)	39.4 µM (inactive)		50.7 µM (inactive)		56.4 µM (inactive)	> 100 µM (inactive)	> 100 µM (inactive)	47.9 µM (inactive)	40 µM (inactive)	> 100 µM (inactive)
COc1ccc(OC)c(/C=C2\CCc3ccccc3C2=O)c1	5.48 µM (inactive)	1.12 µM (active)	2.6 µM (inactive)	6.78 µM (inactive)	0.391 µM (active)	1.1 µM (active)	3.59 µM (inactive)	2.61 µM (inactive)	3.03 µM (inactive)	4.65 µM (inactive)	5.6 µM (inactive)			4.26 µM (inactive)	4.14 µM (inactive)		3.05 µM (inactive)	2.47 µM (inactive)	
Cn1c2c(c3ccccc31)CCN1C(=O)C3SC21C1C(=O)N(c2ccccc2)C(=O)C31 (stereo unspecified)	> 100 µM (inactive)	36.8 µM (inactive)	39.7 µM (inactive)	> 100 µM (inactive)	40.4 µM (inactive)		> 100 µM (inactive)	26.4 µM (inactive)	> 100 µM (inactive)	> 100 µM (inactive)	> 100 µM (inactive)		> 100 µM (inactive)	> 100 µM (inactive)	> 100 µM (inactive)	20 µM (inactive)	> 100 µM (inactive)	> 100 µM (inactive)	> 100 µM (inactive)
CC12OC(=O)C(C#N)C1(C)C1C(=O)CCCC12 (stereo unspecified)	> 100 µM (inactive)	> 100 µM (inactive)	> 100 µM (inactive)	> 100 µM (inactive)	> 100 µM (inactive)	> 100 µM (inactive)	> 100 µM (inactive)		> 100 µM (inactive)		> 100 µM (inactive)			> 100 µM (inactive)	> 100 µM (inactive)		> 100 µM (inactive)		
Cc1ccccc1Nc1nc(NNC(=O)Cc2ccccc2)nc(NNC(=O)c2ccncc2)n1	> 10 µM (inactive)		> 10 µM (inactive)		> 10 µM (inactive)	> 10 µM (inactive)	> 10 µM (inactive)		> 10 µM (inactive)	> 10 µM (inactive)			> 10 µM (inactive)	> 10 µM (inactive)		> 10 µM (inactive)	> 10 µM (inactive)	> 10 µM (inactive)	> 10 µM (inactive)
Cc1cc(=O)oc2cc(OCC(O)COC(C)C)ccc12 (stereo unspecified)	> 100 µM (inactive)	99.1 µM (inactive)		> 100 µM (inactive)	> 100 µM (inactive)	> 100 µM (inactive)	> 100 µM (inactive)		> 100 µM (inactive)	> 100 µM (inactive)	> 100 µM (inactive)	> 100 µM (inactive)	> 100 µM (inactive)	88.3 µM (inactive)	> 100 µM (inactive)	> 100 µM (inactive)	> 100 µM (inactive)	> 100 µM (inactive)	
